Test results from patent US8105798B2, “Cytoplasmic activity of retinoid X receptor and its regulation by ligands and dimerization” (The Burnham Institute, priority 2003, dated 2012).

Assays:
Format in all cases: cell-based
RARβ expression = experiment: RARβ protein expression by Western analysis in cancer cells; conditions: sulindac sulfide 100 μM, 24 hr
Description: The indicated cancer cells were treated for 24 h with or without trans-RA (10^-6 M), or 15d-PGJ2 (5.micro.M) or their combination. RARβ protein expression was determined by Western analysis.
The effect of sulindac sulfide on RXR transactivation was investigated for its effect of RARβ induction by all-trans-retinoic acid (tRA), which activates the RA response element (βRARE) in the RARβ promoter through an RAR/RXR heterodimer. […] The βRARE could be also activated by an RXR/PPAR heterodimer. […] Cells were treated for 24 hr with or without with trans-RA (10^-6 M), or SR11237 (10^-6 M), ciglitazone (10.micro.M), sulindac sulfide (100.micro.M) or the indicated combinations. RARβ protein expression was determined by Western analysis.

TR3 = experiment: subcellular localization of TR3 and RXRα/TR3 heterodimer by confocal microscopy; conditions: 75 μM
Description: FIG. 10 is a series of confocal microscope images of immunostained PC12 cells illustrating that binding of 15d-PGJ2 to RXRα induces translocation of RXRα homodimer/monomer or TR3/RXRα heterodimer from the nucleus to the cytoplasm. Expression vectors for Flag-RXRα and GFP-TR3 were transfected into PC12 cells alone or together. Cells were then treated with 15d-PGJ2 (5.micro.M) for 3 hr, then immunostained with anti-Flag antibody to detect RXRα Flag-RXRα and GFP-TR3 were visualized by confocal microscopy, and their images merged.
In the absence of TPA, both TR3 and RXRα reside mainly in the nucleus. […] (FIG. 2).
Because RXR heterodimerizes with TR3, Inventor examined the effect of 15d-PGJ2 on TR3 subcellular localization in PC12 phaeochromocytoma cells.
Either TR3 alone, RXRα alone or TR3 and RXRα was transfected into HEK293T cells. Cells were then treated with sulindac sulfide (75.micro.M) for 6 hr. RXR.alpha and TR3 localization was determined by immunostaining, and cells were also stained by DAPI. […] Thus, the effect of sulindac sulfide on the cytoplasmic localization of TR3 depends on RXRα expression, probably due to their heterodimerization. Thus, sulindac sulfide induces nuclear export of RXRα and RXRα/TR3 heterodimer. (FIG. 14b).
The effect of sulindac sulfide on mitochondrial targeting of RXRα and TR3 was determined by treating H460 lung cancer cells with 75 micro.M sulindac sulfide for 6 hours and visualization of the cellular localization of these proteins by immunostaining. A two stage detection system was used having either anti-RXR or anti TR3 as a first stage (Santa Cruz Biotechnology and Abgent, respectively). In the absence of treatment, both RXRα and TR3 were found mainly in the nucleus.

[1] = system: CV-1, MGC80-3, HEK293T and HCT116 cells; experiment: apoptosis determined by DAPI staining; conditions: 75 μM, 24 hr
Description: To determine the involvement of RXRα in sulindac sulfide-induced apoptosis of cancer cells, its effect on apoptosis of CV-1 cells (available from American Type Cell Culture, Manassas, Va., as accession number CCL-70) in the absence or presence of RXRα transfection was evaluated. FIG. 13a. RXR was cloned into a pGFP.C2 vector (GenBank Accession #: U19281) according to the procedure of Li et al., Science 289, 1159-1164 (2000). CV-1 cells were transfected with or without RXRα prior to treatment with sulindac sulfide (75.micro.M) for 24 hr. […] Louis, Mo., as catalogue number D9542), and the presence of nuclear fragmentation and/or chromatin condensation is an indicator of apoptosis. […] The requirement of RXRαwas also examined using RXRα siRNA SEQ ID No.: 12 approach. MGC80-3 cells, HEK293T (ATCC, accession number CCL-1573) and HCT116 (ATCC, accession number CCL-247) cell lines were transfected with RXRα siRNA or control siRNA using oligofectamine (from Invitrogen, Corp). Cell samples from each cell line were lysed and the cell extracts were prepared by immunoblotting to determine RXRα expression. Cells transfected with RXR.alpha siRNA or control siRNA were treated with sulindac sulfide (75.micro.M) for 24 hr, and apoptosis was determined by DAPI staining.

RXRα/IKK interaction = molecular target: T1, RXRα/IKK interaction (Homo sapiens, UniProt P19793); experiment: co-immunoprecipitation assay of RXRα with IKK; conditions: 6 hr
T1 construct: expressed in transfected cells; host or cells: HEK293T, pcDNA3 expression vectors
T1 sequence (P19793 whole entry): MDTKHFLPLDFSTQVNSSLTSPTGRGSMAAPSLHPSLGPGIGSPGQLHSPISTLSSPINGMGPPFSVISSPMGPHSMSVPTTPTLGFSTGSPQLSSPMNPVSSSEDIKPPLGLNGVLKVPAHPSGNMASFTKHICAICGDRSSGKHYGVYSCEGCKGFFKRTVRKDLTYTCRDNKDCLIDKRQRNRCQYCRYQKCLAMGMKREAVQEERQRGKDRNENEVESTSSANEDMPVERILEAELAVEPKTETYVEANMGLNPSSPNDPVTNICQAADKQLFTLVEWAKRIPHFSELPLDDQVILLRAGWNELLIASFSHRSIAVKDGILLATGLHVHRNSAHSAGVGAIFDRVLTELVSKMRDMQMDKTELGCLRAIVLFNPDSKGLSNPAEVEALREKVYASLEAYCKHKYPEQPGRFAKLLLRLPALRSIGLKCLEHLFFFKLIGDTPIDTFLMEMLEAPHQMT
T1 sequence (Q9Y6K9 whole entry partner): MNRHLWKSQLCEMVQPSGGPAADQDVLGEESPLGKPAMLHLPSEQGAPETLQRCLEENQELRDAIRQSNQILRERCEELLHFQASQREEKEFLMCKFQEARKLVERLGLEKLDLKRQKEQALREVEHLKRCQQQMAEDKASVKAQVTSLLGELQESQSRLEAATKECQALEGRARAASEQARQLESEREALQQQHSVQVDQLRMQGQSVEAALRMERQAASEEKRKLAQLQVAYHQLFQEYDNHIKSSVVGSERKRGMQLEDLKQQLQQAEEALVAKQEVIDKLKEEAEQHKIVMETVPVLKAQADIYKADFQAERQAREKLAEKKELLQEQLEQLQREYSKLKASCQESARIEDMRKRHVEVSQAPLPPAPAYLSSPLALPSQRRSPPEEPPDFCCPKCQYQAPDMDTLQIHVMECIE
T1 sequence (O14920 whole entry partner): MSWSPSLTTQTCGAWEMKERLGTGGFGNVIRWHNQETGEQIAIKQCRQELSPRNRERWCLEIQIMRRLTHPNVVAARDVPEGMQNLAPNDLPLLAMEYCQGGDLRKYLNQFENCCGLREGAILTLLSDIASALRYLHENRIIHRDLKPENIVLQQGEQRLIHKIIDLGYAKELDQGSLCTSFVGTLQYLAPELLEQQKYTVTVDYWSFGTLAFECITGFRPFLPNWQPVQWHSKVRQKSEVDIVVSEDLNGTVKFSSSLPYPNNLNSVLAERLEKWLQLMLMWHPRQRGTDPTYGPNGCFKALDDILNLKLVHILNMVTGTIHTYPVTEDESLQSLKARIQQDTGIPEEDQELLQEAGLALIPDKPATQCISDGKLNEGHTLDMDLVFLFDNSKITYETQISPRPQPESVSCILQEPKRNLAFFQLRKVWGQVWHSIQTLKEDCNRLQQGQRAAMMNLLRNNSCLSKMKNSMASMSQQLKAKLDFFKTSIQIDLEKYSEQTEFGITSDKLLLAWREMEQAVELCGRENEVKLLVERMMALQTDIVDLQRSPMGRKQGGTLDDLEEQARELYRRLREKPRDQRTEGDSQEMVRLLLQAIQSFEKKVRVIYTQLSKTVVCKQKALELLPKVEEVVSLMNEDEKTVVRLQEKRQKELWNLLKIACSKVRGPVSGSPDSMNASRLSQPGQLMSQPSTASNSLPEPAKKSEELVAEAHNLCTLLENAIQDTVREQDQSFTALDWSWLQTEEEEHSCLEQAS
Source text: IKK is composed of three subunits: IKKα and IKKβ, the catalytic subunits, and IKKγ, a regulatory subunit. IKK activation is required for NF-kB activation through its phosphorylation and degradation of IkB in response to proinflammatory stimuli. In addition, IKK also regulates cellular processes in a NF-kB-independent manner. We examined whether sulindac sulfide-induced cytoplasmic RXRα could interact with IKK. The indicated expression vector (pcDNA3 from Invitrogen, Corp) was transfected into HEK293T cells alone or together. After transfection, cells were treated with sulindac sulfide (75.micro.M) for 6 hr, and the interaction of RXRα and IKKβ was analyzed by co-immunoprecipitation assay. […] (FIG. 17a). The interaction was also illustrated by their cytoplasmic co-localization in cells treated with sulindac sulfide. (FIG. 17b). […] In this example, H460 cells were treated with or without sulindac sulfide (75.micro.M) for 6 hr, and cells were stained for RXRα and IKKβ (FIG. 17c). […] HA-IKKγ and Flag-RXRα expression vectors were transfected into HEK293T cells alone or together. After transfection, cells were treated with a new retinoid (BI419 (10^-6 M), 15d-PGJ2 (5.micro.M), or sulindac sulfide (75.micro.M) for 6 hr. The interaction of RXRα and IKKγ was studied by co-immunoprecipitation assay.

- interaction of RXRα with IKKγ (RXRα/IKK interaction; HEK293T cells, HA-IKKγ and Flag-RXRα, BI419 10^-6 M, 15d-PGJ2 5 μM, sulindac sulfide 75 μM): further promoted
- interaction between RXRα and IKKβ (RXRα/IKK interaction; transfected HEK293T cells, 75 μM): extensive interaction
Compound: CSc1ccc(/C=C2/C(C)=C(CC(=O)O)c3cc(F)ccc32)cc1 [sulindac sulfide]
- inducing effect of tRA on RARβ (RARβ expression; ZR-75-1 and Calu-6 cells, trans-RA 10^-6 M): effectively suppressed
- activation of RXR/PPAR heterodimer by SR11237 and ciglitazone (RARβ expression) (RARβ expression; SR11237 10^-6 M, ciglitazone 10 μM): effectively inhibited
- mitochondrial targeting of RXRα and TR3 (Hsp60) (TR3; H460 lung cancer cells, 6 hours): extensive co-localization of RXRα and TR3 with Hsp60
- TR3 and RXRα localization, co-transfected (TR3; HEK293T cells, 6 hr): both TR3 and RXRα are found in the cytoplasm
- TR3 localization, TR3 transfected alone (TR3; HEK293T cells, 6 hr): does not affect the nuclear localization of TR3
- apoptosis, cells transfected with RXRα ([1]; CV-1 cells, DAPI staining): extensive apoptosis
- apoptosis in cells transfected with RXRα siRNA versus control siRNA ([1]; MGC80-3, HEK293T and HCT116 cells): significant reduction of apoptosis
